Assay results: patent US20080311589A1, “METHOD OF HIGH-THROUGHPUT SCREENING OF MOLECULES AND COMPOUNDS FOR THEIR EFFECTS ON BIOLOGICAL AND CHEMICAL PROCESSES” (priority 1999, published 2008)
“Also recorded” adds a separate entry of the source.

Molecular target: T1, conventional kinesin (Homo sapiens, UniProt P33176)
T1 sequence (P33176 1-963): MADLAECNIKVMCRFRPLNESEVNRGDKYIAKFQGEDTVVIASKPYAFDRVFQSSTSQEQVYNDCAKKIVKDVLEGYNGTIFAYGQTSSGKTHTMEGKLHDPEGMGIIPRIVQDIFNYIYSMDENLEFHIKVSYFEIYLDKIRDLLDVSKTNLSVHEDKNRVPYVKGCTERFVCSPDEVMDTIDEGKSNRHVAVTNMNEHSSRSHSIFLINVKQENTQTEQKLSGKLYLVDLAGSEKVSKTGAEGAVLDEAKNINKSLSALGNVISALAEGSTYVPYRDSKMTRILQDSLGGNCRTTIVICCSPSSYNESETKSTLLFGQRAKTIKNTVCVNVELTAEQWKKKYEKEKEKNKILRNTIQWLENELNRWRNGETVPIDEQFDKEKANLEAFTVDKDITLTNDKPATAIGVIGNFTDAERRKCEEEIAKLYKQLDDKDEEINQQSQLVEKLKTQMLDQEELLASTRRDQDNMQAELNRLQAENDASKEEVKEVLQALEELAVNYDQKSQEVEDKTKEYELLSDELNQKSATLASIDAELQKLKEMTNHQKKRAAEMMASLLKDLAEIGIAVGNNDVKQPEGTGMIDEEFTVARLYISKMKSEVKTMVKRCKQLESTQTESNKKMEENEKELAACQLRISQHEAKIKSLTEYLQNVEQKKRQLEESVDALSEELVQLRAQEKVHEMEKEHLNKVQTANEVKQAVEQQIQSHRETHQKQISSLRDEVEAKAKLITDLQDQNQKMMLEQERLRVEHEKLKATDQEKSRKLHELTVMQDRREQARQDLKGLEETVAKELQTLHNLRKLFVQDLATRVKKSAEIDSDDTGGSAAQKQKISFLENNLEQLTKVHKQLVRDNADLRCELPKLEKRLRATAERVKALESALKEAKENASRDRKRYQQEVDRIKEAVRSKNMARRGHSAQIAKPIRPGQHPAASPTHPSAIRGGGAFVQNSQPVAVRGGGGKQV
Test: microtubule gliding driven by conventional kinesin
Assay type: biochemical
Details: 200 μM
Procedure: FIG. 26. […] Conventional kinesin motility was not inhibited in the same assay. A. Model for spindle bipolarity. Plus-end directed motors, such as Eg5 are thought to be involved in the separation of the centrosomes and the establishment of a symmetric spindle axis. B. Inhibition of the kinesin Eg5 results in monastrol spindles. Microtubules, green; chromosomes, blue. Eg5 is depicted as homotetramer (9). C. […] After imaging Eg5 driven microtubule gliding in the presence of monastrol (200 μM), the same assay chamber was depleted of compound and the microtubule gliding recorded (Washout). […] D. Chemical structures of monastrol and DHP2.
Eg5 is a member of the kinesin superfamily, which includes over 100 homologous proteins involved in organelle transport, membrane organization, and assembly and maintenance of mitotic spindles (Vale et al., Annu. Rev. Cell. Dev. Biol. 13:745, 1997). To test whether monastrol affects other motor proteins, we first assayed its ability to inhibit microtubule gliding driven by conventional kinesin in vitro. The N-terminal motor domain of conventional kinesin shares 33% sequence identity with the Eg5 motor domain (Kapoor et al., Proc. Natl. Acad. Sci. USA, 1999). […] We next investigated whether monastrol disturbs the distribution of lysosomes or the Golgi apparatus in vivo. […]

For monastrol, the “inhibition of microtubule gliding driven by conventional kinesin” value was “no inhibition; also recorded: does not inhibit”.
